We go through 6 compounds from patent US9468209B2, “Method for eradicating weeds with derivatives of 3-acetyl-5-sec-butyl-4-hydroxy-3-pyrrolin-2-one” (priority 2012, dated 2016).

Each structure is given as a SMILES string.

Common to all, as to test: Leaf piece damage test
Common to all, as to format: in vivo
What all share (design): key: 4: The leaf completely dead; 3: Two third of the leaf withered; 2: One half of the leaf withered; 1: Only edge of the leaf withered; 0: Not damage at all
Conditions in all cases: 50 μg/mL, 4 days

Assay [1] deals with Equal alopecurus. Here is the method:
(§1) Compounds 7, 14, 15, 16, 40, 45, 48 and 53 were dissolved individually in small amount of methanol, and diluted with distilled water to concentration of 50 μg/mL. Methanol water solution and pure water were used as control. A piece of 5 mm leaf was taken from the second leaf of weed sample and was treated with the solution three times. 5 pieces of the leaf were prepared for each treatment. The damage data were collected 4 days later. The measurement of damage level is described in the Table 9.
(§2) The measurement of the plant damage was calculated by the formula: Damage Index=Σ(damage level×number of plants)×100/4/number of plants in each treatment.

For assay [2], the system named is Eupatorium adenophorum. As for the experimental part: as §1, §2
For assay [3], the system named is Chenopodium serotinum. Here is the method:
as §1, §2

Assay [4] relates to Polygonum lapathifolium. As for the experimental part:
as §1, §2

Assay [5] relates to Aster ageratoides var. scaberulus. Here is the method: as §1, §2
For assay [6], the system named is Polygonum perfoliatum. As for the experimental part:
as §1, §2

The test system of assay [7] is Youngia japonica. As for the experimental part: as §1, §2
The test system of assay [8] is Cyperus difformis. Here is the method: as §1, §2
The test system of assay [9] is Veronica percica. Here is the method:
as §1, §2

Assay [10] has as its system Alligator weed (Alternanthera philoxeroides). Here is the method:
as §1, §2

Assay [11] concerns Humulus scandens. As for the experimental part:
as §1, §2

For assay [12], the system named is Pharbitis nil. Here is the method: as §1, §2
Assay [13] has as its system Sonchus asper. As for the experimental part: as §1, §2
The test system of assay [14] is Erigeron annuus. Here is the method: as §1, §2
Assay [15] relates to Dichondra repens. Here is the method:
as §1, §2

In assay [16] the test system is Crabgrass (Digitaria sanguinalis). As for the experimental part:
as §1, §2

Assay [17] concerns Cayratia japonica. Here is the method:
as §1, §2

Assay [18] relates to Lamium amplexicaule. As for the experimental part:
as §1, §2

Assay [19] relates to Ambrosia artemisiifolia. Here is the method:
as §1, §2

Assay [20] relates to Parthenocissus tricuspidata. As for the experimental part:
as §1, §2

Assay [21] concerns Green foxtail (Setaria viridis). Here is the method:
as §1, §2

Assay [22] relates to Pigweed (Amaranthus spinosus). As for the experimental part:
as §1, §2

Consider `CCCC(Cl)C1NC(=O)C(C(C)=O)=C1O` (stereo not drawn) [Compound 40], for which the Damage level in assay [1] worked out at 3; in [2], 4; in assay [3], 2; in assay [4] it was 2; in assay [5] it was 3; in [6] it was 3. Besides, the Damage level in assay [7] amounted to 3; in [8], 3; in [9], 3; in assay [10] it was 3; in [11], 3; in assay [12], 2. For the same compound, the Damage level in [13] is 3; in assay [14] it was 3; in assay [15], 3; in assay [16], 4; in [17], 2; in assay [18] it was 3. The Damage level in [19] worked out at 3; in assay [20] it was 2; in assay [21], 3; in assay [22] it was 2.
`CCC(C)C1NC(=O)C(C(=O)CCc2cc(Cl)cc(Cl)c2)=C1O` (stereo not drawn) [Compound 48]: the Damage level amounted to 4 in assay [1]; 4 in assay [2]; 3 in [3]; 2 in [4]; 4 in assay [5]; 3 in [6]. In addition, the Damage level is 3 in [7]; 4 in assay [8]; 3 in [9]; 4 in assay [10]; 3 in assay [11]; 3 in assay [12]. Further, the Damage level in assay [13] is recorded as 4; in assay [14], 4; in assay [15], 3; in assay [16], 4; in assay [17], 3; in [18], 2. Moreover, the Damage level in assay [19] stood at 3; in assay [20], 3; in assay [21], 4; in assay [22], 3.
For `CCCCCCC1NC(=O)C(C(C)=O)=C1O` (stereo not drawn) [Compound 16], the Damage level in assay [1] is reported as 3; in assay [2] it was 4; in [3], 2; in assay [4] it was 2; in [5] it was 4; in [6], 3. Moreover, the Damage level in assay [7] stood at 3; in assay [8], 3; in [9] it was 2; in [10], 3; in assay [11], 3; in assay [12] it was 2. Besides, the Damage level in [13] is 3; in [14], 3; in assay [15] it was 3; in assay [16], 4; in assay [17] it was 2; in assay [18], 2. Moreover, the Damage level in assay [19] came to 3; in [20], 2; in assay [21] it was 3; in assay [22] it was 2.
Turning to `CCC(C)C1NC(=O)C(C(=O)CCF)=C1O` (stereo not drawn) [Compound 44], the Damage level is recorded as 3 in assay [1]; 4 in assay [2]; 3 in assay [3]; 2 in [4]; 4 in assay [5]; 3 in assay [6]. Besides, the Damage level in assay [7] was found to be 3; in assay [8] it was 3; in assay [9] it was 3; in assay [10], 4; in [11], 2; in assay [12], 3. The Damage level in assay [13] is on record as 3; in [14], 4; in assay [15] it was 2; in [16], 4; in [17] it was 3; in assay [18], 3. The Damage level in [19] is 4; in assay [20], 3; in [21] it was 4; in [22], 3.
On to `CCCC(C#N)C1NC(=O)C(=C(C)O)C1=O` (stereo not drawn) [Compound 53], for which the Damage level in [1] worked out at 4; in assay [2] it was 4; in assay [3] it was 3; in [4] it was 3; in assay [5], 4; in assay [6] it was 3. The Damage level in assay [7] amounted to 4; in assay [8] it was 3; in assay [9], 3; in assay [10], 3; in assay [11], 2; in [12] it was 3. Further, the Damage level is reported as 3 in [13]; 3 in assay [14]; 2 in assay [15]; 4 in assay [16]; 3 in [17]; 2 in [18]. The Damage level in assay [19], in assay [20], in assay [21] and in [22] was 3 throughout.
As to `CCCCCC1NC(=O)C(C(C)=O)=C1O` (stereo not drawn) [Compound 15], the Damage level came out at 3 in assay [1]; 4 in [2]; 2 in assay [3]; 2 in assay [4]; 3 in assay [5]; 2 in assay [6]. The Damage level in assay [7] came to 3; in [8], 3; in assay [9], 2; in [10], 2; in assay [11], 2; in assay [12], 3. The Damage level in assay [13] was 3; in assay [14], 4; in assay [15] it was 2; in assay [16], 4; in assay [17], 2; in assay [18], 3. Further, the Damage level is listed as 2 in [19], 3 in assay [20], 4 in assay [21] and 2 in assay [22].
